Experimental data: paper PMC10139140, “Synthesis of Novel 2-(Cyclopentylamino)thiazol-4(5H)-one Derivatives with Potential Anticancer, Antioxidant, and 11β-HSD Inhibitory Activities” (International Journal of Molecular Sciences, 2023)

Legend:
11β-HSD1 = biological target: T1, 11β-HSD1 (Homo sapiens, UniProt P28845); test: Inhibition of 11β-HSD1 (cortisone to cortisol, human liver microsomes, cortisol ELISA); assay type: biochemical; settings: for inhibition at 10 µM: 2.5 h, 37 °C
T1 construct: Human liver microsomes were used as a source of 11β-HSD1 enzyme; tissue XenoTech Lot No. 1410013; host or cells: pooled human liver microsomes, mixed gender
T1 sequence (P28845 whole entry): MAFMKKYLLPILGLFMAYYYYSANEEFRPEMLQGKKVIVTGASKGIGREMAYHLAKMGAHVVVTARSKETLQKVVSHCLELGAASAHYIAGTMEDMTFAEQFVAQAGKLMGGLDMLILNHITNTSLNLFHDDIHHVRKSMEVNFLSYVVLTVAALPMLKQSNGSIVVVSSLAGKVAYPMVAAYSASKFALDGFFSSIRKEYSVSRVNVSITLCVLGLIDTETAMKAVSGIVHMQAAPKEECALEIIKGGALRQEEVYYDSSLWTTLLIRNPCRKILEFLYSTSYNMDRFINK
Method in brief: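 Human liver microsomal conversion of cortisone to cortisol, incubated 2.5 h at 37 °C and stopped with 18β-glycyrrhetinic acid. Cortisol was quantified by ELISA against inhibitor-free controls.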

11β-HSD2 = biological target: T2, 11β-HSD2 (Homo sapiens, UniProt P80365); test: Inhibition of 11β-HSD2 (cortisol to cortisone, human microsomes, cortisol ELISA); assay type: biochemical; settings: 2.5 h, 37 °C
T2 construct: Human liver microsomes were used as a source of 11β-HSD2 enzyme; tissue XenoTech Lot No. 1710160; host or cells: human kidney microsomes, mixed gender (method text says human liver microsomes)
T2 sequence (P80365 1-405): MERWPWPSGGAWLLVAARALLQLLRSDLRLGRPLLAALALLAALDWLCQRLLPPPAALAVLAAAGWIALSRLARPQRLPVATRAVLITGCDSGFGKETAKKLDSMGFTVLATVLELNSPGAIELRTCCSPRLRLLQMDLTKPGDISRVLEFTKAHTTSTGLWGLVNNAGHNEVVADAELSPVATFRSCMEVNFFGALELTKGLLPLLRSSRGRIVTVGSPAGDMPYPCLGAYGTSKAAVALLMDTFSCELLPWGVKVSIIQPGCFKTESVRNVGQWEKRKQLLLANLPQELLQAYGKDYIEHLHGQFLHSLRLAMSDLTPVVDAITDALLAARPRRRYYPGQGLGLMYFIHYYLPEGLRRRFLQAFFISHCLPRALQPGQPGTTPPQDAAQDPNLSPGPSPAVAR
Protocol: The resulting solution with a final volume of 100 µL was incubated for 2.5 h at 37 °C. […] The level of unreacted cortisol was measured by a commercially available ELISA kit.

BJ cells = test: MTS metabolic activity assay, BJ cells; assay type: cell-based; settings: Homo sapiens, 72 h, read-out: Cell metabolic activity (MTS), % of untreated control
Method in brief: (§1)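 Metabolic activity was measured by MTS reduction following a 72 h exposure to a range of compound concentrations. Cells had been plated 24 h beforehand at standard density, with fewer BJ cells per well. Values are percentages relative to untreated controls.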

[1] = system: human colon carcinoma (Caco-2); test: MTS metabolic activity assay, Caco-2 cells; assay type: cell-based; settings: Homo sapiens, 72 h, read-out: Cell metabolic activity (MTS), % of untreated control; for viability at 10 µM: Caco-2, 10 µM; for viability at 20 µM: Caco-2, 20 µM; for viability at 50 µM: Caco-2, 50 µM; for viability at 100 µM: Caco-2, 100 µM; for viability at 200 µM: Caco-2, 200 µM; for viability at 300 µM: Caco-2, 300 µM; for viability at 500 µM: Caco-2, 500 µM
Method in brief: as §1

[2] = system: human pancreatic carcinoma (PANC-1); test: MTS metabolic activity assay, PANC-1 cells; assay type: cell-based; settings: Homo sapiens, 72 h, read-out: Cell metabolic activity (MTS), % of untreated control; for viability at 10 µM: PANC-1, 10 µM; for viability at 20 µM: PANC-1, 20 µM; for viability at 50 µM: PANC-1, 50 µM; for viability at 100 µM: PANC-1, 100 µM; for viability at 200 µM: PANC-1, 200 µM; for viability at 300 µM: PANC-1, 300 µM; for viability at 500 µM: PANC-1, 500 µM
Method in brief: as §1

glioma (U-118 MG) = test: MTS metabolic activity assay, U-118 MG cells; assay type: cell-based; settings: 72 h; for viability at 10 µM / viability at 20 µM / viability at 50 µM / viability at 100 µM / viability at 200 µM / viability at 300 µM / viability at 500 µM: Homo sapiens, U-118-MG, U118-MG, read-out: Cell metabolic activity (MTS), % of untreated control
Method in brief: as §1

[3] = system: skin melanoma (SK-MEL-30); test: MTS metabolic activity assay, SK-MEL-30 cells; assay type: cell-based; settings: Homo sapiens, 72 h, read-out: Cell metabolic activity (MTS), % of untreated control; for viability at 10 µM: SK-MEL-30, 10 µM; for viability at 20 µM: SK-MEL-30, 20 µM; for viability at 50 µM: SK-MEL-30, 50 µM; for viability at 100 µM: SK-MEL-30, 100 µM; for viability at 200 µM: SK-MEL-30, 200 µM; for viability at 300 µM: SK-MEL-30, 300 µM; for viability at 500 µM: SK-MEL-30, 500 µM
Method in brief: as §1

[4] = system: human breast carcinoma (MDA-MB-231); test: MTS metabolic activity assay, MDA-MB-231 cells; assay type: cell-based; settings: Homo sapiens, 72 h, read-out: Cell metabolic activity (MTS), % of untreated control; for viability at 10 µM: MDA-MB-231, 10 µM; for viability at 20 µM: MDA-MB-231, 20 µM; for viability at 50 µM: MDA-MB-231, 50 µM; for viability at 100 µM: MDA-MB-231, 100 µM; for viability at 200 µM: MDA-MB-231, 200 µM; for viability at 300 µM: MDA-MB-231, 300 µM; for viability at 500 µM: MDA-MB-231, 500 µM
Method in brief: as §1

With CC(C)C1SC(NC2CCCC2)=NC1=O (stereo not shown) [Compound 3d, 2-(cyclopentylamino)-5-isopropylthiazol-4(5H)-one] the IC50 (11β-HSD1) was 460 ± 70 nM, the inhibition at 10 µM (11β-HSD1) was 82.9 ± 2.62% and the inhibition at 10 µM (11β-HSD2) was 38.6 ± 3.69%. It also gave a viability at 10 µM (BJ cells) of 109%, a viability at 20 µM (BJ cells) of 106% and a viability at 50 µM (BJ cells) of 109%. For the same molecule, the viability at 100 µM (BJ cells) was 110%, the viability at 200 µM (BJ cells) was 116% and the viability at 300 µM (BJ cells) was 118%. The viability at 500 µM (BJ cells) was 118%, the viability at 10 µM [1] was 88.8% and the viability at 20 µM [1] was 82.8%. The viability at 50 µM [1] was 90.8%, the viability at 100 µM [1] was 83.1% and the viability at 200 µM [1] was 84.8%. For the same molecule, the viability at 300 µM [1] was 85.3%, the viability at 500 µM [1] was 70.1% and the viability at 10 µM [2] was 107%. For the same molecule, the viability at 20 µM [2] was 103%, the viability at 50 µM [2] was 105% and the viability at 100 µM [2] was 116%. For the same molecule, the viability at 200 µM [2] was 113%, the viability at 300 µM [2] was 119% and the viability at 500 µM [2] was 118%. It also gave a viability at 10 µM (glioma (U-118 MG)) of 118%, a viability at 20 µM (glioma (U-118 MG)) of 111% and a viability at 50 µM (glioma (U-118 MG)) of 114%. The viability at 100 µM (glioma (U-118 MG)) was 112%, the viability at 200 µM (glioma (U-118 MG)) was 114% and the viability at 300 µM (glioma (U-118 MG)) was 115%. For the same molecule, the viability at 500 µM (glioma (U-118 MG)) was 120%, the “highest increase in proliferation (cell metabolic activity)” value (glioma (U-118 MG); U-118 MG, range given for the named substances together) was 115 to 144% and the viability at 10 µM [3] was 97.2%. The viability at 20 µM [3] was 97.1%, the viability at 50 µM [3] was 97.7% and the viability at 100 µM [3] was 102%. It also gave a viability at 200 µM [3] of 92.3%, a viability at 300 µM [3] of 78.2% and a viability at 500 µM [3] of 59.4%. It also gave a viability at 10 µM [4] of 92.8%, a viability at 20 µM [4] of 91.2% and a viability at 50 µM [4] of 95.5%. It also gave a viability at 100 µM [4] of 94.4%, a viability at 200 µM [4] of 86.6% and a viability at 300 µM [4] of 81.8%. For the same molecule, the viability at 500 µM [4] was 57.6%.

CC1(C)SC(NC2CCCC2)=NC1=O [Compound 3e, 2-(cyclopentylamino)-5,5-dimethylthiazol-4(5H)-one] showed an IC50 (11β-HSD1) of 4400 ± 150 nM, an inhibition at 10 µM (11β-HSD1) of 53.2 ± 5.22% and an inhibition at 10 µM (11β-HSD2) of 36.6 ± 1.5%. The viability at 10 µM (BJ cells) was 107%, the viability at 20 µM (BJ cells) was 109% and the viability at 50 µM (BJ cells) was 112%. It also gave a viability at 100 µM (BJ cells) of 114%, a viability at 200 µM (BJ cells) of 117% and a viability at 300 µM (BJ cells) of 119%. The viability at 500 µM (BJ cells) was 108%, the viability at 10 µM [1] was 99.9% and the viability at 20 µM [1] was 86.5%. The viability at 50 µM [1] was 86.7%, the viability at 100 µM [1] was 83.4% and the viability at 200 µM [1] was 80.2%. For the same molecule, the viability at 300 µM [1] was 75.6%, the viability at 500 µM [1] was 64.1% and the viability at 10 µM [2] was 110%. The viability at 20 µM [2] was 101%, the viability at 50 µM [2] was 110% and the viability at 100 µM [2] was 112%. It also gave a viability at 200 µM [2] of 120%, a viability at 300 µM [2] of 122% and a viability at 500 µM [2] of 127%. For the same molecule, the viability at 10 µM (glioma (U-118 MG)) was 110%, the viability at 20 µM (glioma (U-118 MG)) was 110% and the viability at 50 µM (glioma (U-118 MG)) was 116%. The viability at 100 µM (glioma (U-118 MG)) was 111%, the viability at 200 µM (glioma (U-118 MG)) was 112% and the viability at 300 µM (glioma (U-118 MG)) was 109%. For the same molecule, the viability at 500 µM (glioma (U-118 MG)) was 106%, the viability at 10 µM [3] was 102% and the viability at 20 µM [3] was 100%. It also gave a viability at 50 µM [3] of 103%, a viability at 100 µM [3] of 106% and a viability at 200 µM [3] of 106%. It also gave a viability at 300 µM [3] of 104%, a viability at 500 µM [3] of 104% and a viability at 10 µM [4] of 96.3%. It also gave a viability at 20 µM [4] of 100%, a viability at 50 µM [4] of 103% and a viability at 100 µM [4] of 95.7%. It also gave a viability at 200 µM [4] of 93.7%, a viability at 300 µM [4] of 90.6% and a viability at 500 µM [4] of 85.2%.
